Holding throughout (format): cell-based
One assay deals with T1, STING WT variant (Homo sapiens, UniProt Q86WV6).
T1 construct: host or cells: HEK-Blue ISG KO-STING cells (Invivogen, hkb-kostg)
Put plainly: SEAP reporter assay in HEK-Blue ISG KO-STING cells transfected with STING WT variant (Method 1). To be noted: 24 h, SEAP signal vs 0.5% DMSO. An excerpt:
(§1) Activation of STING can be determined using a SEAP reporter assay in HEK-Blue™ ISG KO-STING cells (Invivogen, cat #hkb-kostg) transfected with plasmids expressing STING variants (WT & HAQ) (referred to WO2017/175147A1). STING variants (WT & HAQ) vector were constructed based on STING-232H vector (Origene, RC208418). GFP vector (VT2069) was bought from Youbio. The detailed protocol as follows: HEK-Blue™ ISG KO-STING cells were harvest and seeding into 96 well plate, the final cell number was 0.8×10^5 cells/well. Transfections were prepared using Lipofectamine 2000 (Invitrogen, Cat #11668-027) following the manufacturer's instructions (Lipo2000/DNA=1/10), 20 ul of transfection suspension containing 1 ng STING vector was added to cell culture plate and incubated at 37° C., 5% CO2 for 24 hours. After 24 hours' incubation, compounds were added at proper concentration, and the final DMSO concentration was 0.5%. After 24 h incubation, the supernatant was collected to detect SEAP signal using Great EscAPe SEAP chemiluminescence KIT (Clontech, cat #631738) and cells were collected to detect cell viability using CellTiter-Glo Luminescent Cell Viability Assay (Promega, cat #G7573) following the manufacturer's instructions. The data were described by the ratio of the stimulating signal of compounds to 0.5% DMSO.
Background: Reporter assays use an easily measured gene product as a stand-in for the process of interest.

A further assay concerns the target STING (Homo sapiens, UniProt Q86WV6). Put plainly: IFN-β secretion from THP1 by STING activation (hIFNβ ELISA). To be noted: THP1 cells, 24 h incubation, IFN-β in supernatant, top dose set according to solubility; for EC50: read-out: hIFNβ ELISA (EC50). How it is done: In this assay, activation of STING by compounds was evaluated by detecting their ability to stimulate the secretion of IFN-β (interferon-beta) from THP1. THP1 was purchased from National Collection of Authenticated Cell Cultures (Cat #TCHu 57). The top dose of compounds was setted according to their solubility. First, Compounds were 3 times diluted with medium, 8-dose points in total. The final DMSO concentration was 0.2%. THP1 during the logarithmic phase was resuspended to 2×10^6 cells/ml in assay medium. The THP1-cell suspension was dispensed into a 96-well U bottom plate containing 50 ul of compound diluted in medium. After 24 h incubation at 37° C., 5% CO2, the supernatant was collected. The concentration of IFN-β in the supernatant was measured using a human IFNβ ELISA KIT (R&D, DY814-05). The data was fitted with GraphPad Prism or XLfit to calculate EC50 values.
Background: In an ELISA, binding on a coated surface is turned into a signal by an enzyme label.

The target in the next assay is T2, STING HAQ variant (Homo sapiens, UniProt Q86WV6, G230A/R293Q/R71H).
T2 construct: host or cells: HEK-Blue ISG KO-STING cells (Invivogen, hkb-kostg)
Put plainly: SEAP reporter assay in HEK-Blue ISG KO-STING cells transfected with STING HAQ variant (Method 1). The following applies: 24 h, SEAP signal vs 0.5% DMSO.
Source text: as §1

Where [1] appears, read: 1 ng STING vector, compound 2.5 uM.
[2] abbreviates: 1 ng STING vector, compound 5 uM.

T2 sequence (Q86WV6 whole entry R71H/G230A/R293Q): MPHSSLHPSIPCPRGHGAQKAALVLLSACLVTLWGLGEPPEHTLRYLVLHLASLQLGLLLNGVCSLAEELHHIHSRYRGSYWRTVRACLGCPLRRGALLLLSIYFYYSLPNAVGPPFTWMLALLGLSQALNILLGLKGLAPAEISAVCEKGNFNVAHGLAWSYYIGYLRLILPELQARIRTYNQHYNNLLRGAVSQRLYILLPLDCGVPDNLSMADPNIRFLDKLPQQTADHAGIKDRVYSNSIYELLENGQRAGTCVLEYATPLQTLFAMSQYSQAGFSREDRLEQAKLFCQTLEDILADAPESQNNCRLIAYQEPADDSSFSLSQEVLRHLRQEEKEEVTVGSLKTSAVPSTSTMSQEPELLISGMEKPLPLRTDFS
STING, sequence (Q86WV6 whole entry): as the sequence (Q86WV6 whole entry R71H/G230A/R293Q) above, with H71R, A230G, Q293R counted along it

For `CCn1nc(C)cc1C(=O)Nc1nc2cc(C(N)=O)cc(OCCCOC)c2n1CCCC[C@H]1COc2cc(C(N)=O)cc3nc(NC(=O)c4cc(C)nn4CC)n1c23` [Example 8, (S)-3-(4-(5-carbamoyl-2-(1-ethyl-3-methyl-1H-pyrazole-5-carboxamido)-7-(3-methoxypropoxy)-1H-benzo[d]imidazol-1-yl)butyl)-2-(1-ethyl-3-methyl-1H-pyrazole-5-carboxamido)-3,4-dihydro-5-oxa-1,2a-diazaacenaphthylene-7-carboxamide], the “Fold change related to DMSO control WT” value on STING WT variant (compound 4.7 uM) amounted to 2.08. At STING, the “hIFNβ ELISA (EC50, μM)” value is “inactive”. For the same molecule, the “Fold change related to DMSO control HAQ” value at STING HAQ variant (compound 4.7 uM) came out at 8.09.
Consider `CCn1nc(C)cc1C(=O)Nc1nc2cc(C(N)=O)cc(OCCCOC)c2n1CCC[C@H]1COc2cc(-c3nn[nH]n3)cc3nc(NC(=O)c4cc(C)nn4CC)n1c23` [Example 26, (S)-2-(1-ethyl-3-methyl-1H-pyrazole-5-carboxamido)-1-(3-(2-(1-ethyl-3-methyl-1H-pyrazole-5-carboxamido)-7-(2H-tetrazol-5-yl)-3,4-dihydro-5-oxa-1,2a-diazaacenaphthylen-3-yl)propyl)-7-(3-methoxypropoxy)-1H-benzo[d]imidazole-5-carboxamide], for which, on STING, the “hIFNβ ELISA (EC50, μM)” value is “inactive”.
The EC50 is the concentration that produces a half-maximal response. Turning to `CCn1nc(C)cc1C(=O)Nc1nc2cc(C(N)=O)cc(OCCCCNC)c2n1CCC[C@H]1COc2cc(C(N)=O)cc3nc(NC(=O)c4cc(C)nn4CC)n1c23` [Example 23, (S)-3-(3-(5-carbamoyl-2-(1-ethyl-3-methyl-1H-pyrazole-5-carboxamido)-7-(4-(methylamino)butoxy)-1H-benzo[d]imidazol-1-yl)propyl)-2-(1-ethyl-3-methyl-1H-pyrazole-5-carboxamido)-3,4-dihydro-5-oxa-1,2a-diazaacenaphthylene-7-carboxamide], at STING WT variant (setting [1]), the “Fold change related to DMSO control WT” value is recorded as 2.82. The concentration for a half-maximal effect (EC50) on STING came to 1.1 µM. Further, the “Fold change related to DMSO control HAQ” value at STING HAQ variant (setting [2]) turned out to be 38.85.
The corresponding values for `CCn1nc(C)cc1C(=O)Nc1nc2cc(C(N)=O)cc(OCCNC)c2n1CCC[C@H]1COc2cc(C(N)=O)cc3nc(NC(=O)c4cc(C)nn4CC)n1c23` [Example 16, (S)-3-(3-(5-carbamoyl-2-(1-ethyl-3-methyl-1H-pyrazole-5-carboxamido)-7-(2-(methylamino)ethoxy)-1H-benzo[d]imidazol-1-yl)propyl)-2-(1-ethyl-3-methyl-1H-pyrazole-5-carboxamido)-3,4-dihydro-5-oxa-1,2a-diazaacenaphthylene-7-carboxamide] are 2.07, more than 17.9 µM and 20.47.
The like results for `CCn1nc(C)cc1C(=O)Nc1nc2cc(C(N)=O)cc(OCCCN(C)C)c2n1CCC[C@H]1COc2cc(C(N)=O)cc3nc(NC(=O)c4cc(C)nn4CC)n1c23` [Example 18, (S)-3-(3-(5-carbamoyl-7-(3-(dimethylamino)propoxy)-2-(1-ethyl-3-methyl-1H-pyrazole-5-carboxamido)-1H-benzo[d]imidazol-1-yl)propyl)-2-(1-ethyl-3-methyl-1H-pyrazole-5-carboxamido)-3,4-dihydro-5-oxa-1,2a-diazaacenaphthylene-7-carboxamide] were, in that order, 2.64, 18.2 µM and 40.66.
The like results for `CCn1nc(C)cc1C(=O)Nc1nc2cc(C(N)=O)cc(OCCCN(C)C(C)=O)c2n1CCC[C@H]1COc2cc(C(N)=O)cc3nc(NC(=O)c4cc(C)nn4CC)n1c23` [Example 27, (S)-3-(3-(5-carbamoyl-2-(1-ethyl-3-methyl-1H-pyrazole-5-carboxamido)-7-(3-(N-methylacetamido)propoxy)-1H-benzo[d]imidazol-1-yl)propyl)-2-(1-ethyl-3-methyl-1H-pyrazole-5-carboxamido)-3,4-dihydro-5-oxa-1,2a-diazaacenaphthylene-7-carboxamide] were, in that order, 2.22, 3.9 µM and 45.86.
As to `CCn1nc(C)c(Br)c1C(=O)Nc1nc2cc(C(N)=O)cc3c2n1[C@@H](CCCn1c(NC(=O)c2cc(C)nn2CCF)nc2cc(C(N)=O)cc(OCCCOC)c21)CO3` [Example 13, (S)-2-(4-bromo-1-ethyl-3-methyl-1H-pyrazole-5-carboxamido)-3-(3-(5-carbamoyl-2-(1-(2-fluoroethyl)-3-methyl-1H-pyrazole-5-carboxamido)-7-(3-methoxypropoxy)-1H-benzo[d]imidazol-1-yl)propyl)-3,4-dihydro-5-oxa-1,2a-diazaacenaphthylene-7-carboxamide], the “Fold change related to DMSO control WT” value at STING WT variant (setting [1]) came to 1.79. Also, the EC50 on STING is more than 3 µM. Further, the “Fold change related to DMSO control HAQ” value on STING HAQ variant (setting [2]) came out at 26.64.
Turning to `CCn1nc(C)c2c1C(=O)Nc1nc3cc(C(N)=O)cc(OCCCOC)c3n1CCC[C@H]1COc3cc(C(N)=O)cc4nc(n1c34)NC(=O)c1cc(C)nn1CCCCC2` [Example 59, (S)-17-ethyl-24-(3-methoxypropoxy)-8,15-dimethyl-6,18-dioxo-5,6,10,11,12,13,14,17, 18, 19, 26, 27, 27a,28-tetradecahydro-25H-29-oxa-4,4a1,5,9,9a,16, 17, 19, 20, 24b-decaazadicyclopenta[11, 12:18,19]indeno[1′,2′:7,8]cyclohenicosa[1,2,3-bc]acenaphthylene-2,22-dicarboxamide], on STING, the EC50 is more than 5.6 µM.
As to `CCn1nc(C)cc1C(=O)Nc1nc2cc(C(N)=O)cc(OCCCOC)c2n1CCC[C@H]1COc2cc(C#N)cc3nc(NC(=O)c4cc(C)nn4CC)n1c23` [Example 11, (S)-1-(3-(7-cyano-2-(1-ethyl-3-methyl-1H-pyrazole-5-carboxamido)-3,4-dihydro-5-oxa-1,2a-diazaacenaphthylen-3-yl)propyl)-2-(1-ethyl-3-methyl-1H-pyrazole-5-carboxamido)-7-(3-methoxypropoxy)-1H-benzo[d]imidazole-5-carboxamide], the “Fold change related to DMSO control WT” value at STING WT variant (setting [1]) was found to be 1.83. In addition, the “Fold change related to DMSO control HAQ” value on STING HAQ variant (setting [2]) was 27.74.
Regarding `CCn1nc(C)c2c1C(=O)Nc1nc3cc(C(N)=O)cc4c3n1[C@@H](CCCn1c(nc3cc(C(N)=O)cc(OCCCOC)c31)NC(=O)c1cc(C)nn1CCCCC2)CO4` [Example 58, (S)-7-Ethyl-24-(3-methoxypropoxy)-9,16-dimethyl-6,18-dioxo-5,6,7,10,11,12,13,14,18,19,26,27,27a,28-tetradecahydro-25H-29-oxa-4,4a1,5,7,8,14a,15,19,20,24b-decaaza-dicyclopenta[11, 12:18,19]indeno[1′,2′:7,8]cyclohenicosa[1,2,3-bc]acenaphthylene-2,22-dicarboxamide], the EC50 on STING is more than 4.3 µM.
Consider `CCn1nc(C)cc1C(=O)Nc1nc2cc(C(N)=O)cc(OCCCN(C)C(=O)CN(C)C)c2n1CCC[C@H]1COc2cc(C(N)=O)cc3nc(NC(=O)c4cc(C)nn4CC)n1c23` [Example 28, (S)-3-(3-(5-carbamoyl-7-(3-(2-(dimethylamino)-N-methylacetamido)propoxy)-2-(1-ethyl-3-methyl-1H-pyrazole-5-carboxamido)-1H-benzo[d]imidazol-1-yl)propyl)-2-(1-ethyl-3-methyl-1H-pyrazole-5-carboxamido)-3,4-dihydro-5-oxa-1,2a-diazaacenaphthylene-7-carboxamide], for which, on STING, the EC50 worked out at 11.7 µM.

The values are drawn from patent US12364702B2, “Highly active sting protein agonist compound” (ADLAI NORTYE BIOPHARMA CO., LTD., priority 2018, dated 2025).
